Data set [1] deals with Beagle dogs. In words: Intraocular pressure in dogs (pneumatonometry). Format: in vivo. The settings on record: dog, topical 25 μL drop, Conc. 0.03%, 5 day study. Here is the method: (§1) • Intraocular Pressure (IOP) Intraocular pressure studies in dogs involved pneumatonometry performed in conscious, Beagle dogs of both sexes (10–15 kg). The animals remained conscious throughout the study and were gently restrained by hand. Drugs were administered topically to one eye as a 25 μL volume drop, the other eye received 25 μL vehicle (0.1% polysorbate 80:10 mM TRIS) as a control. Proparacaine (0.1%) was used for corneal anesthesia during tonometry. Intraocular pressure was determined just before drug administration and at 2, 4 and 6 hr thereafter on each day of the 5 day study. Drug was administered immediately after the first IOP reading. • An analogous procedure was carried out with cynomolgus monkeys with measurements at 2, 4, 6, and 24 hours after a single dose. • Pupil Diameter • Dog pupil diameter was measured using an optistick (a mm ruler which included half-circle references of standard widths (mm) for reference. Gently restraining the dog by hand, pupil diameter was determined by matching a half-circle to the pupil in normal room light. In dogs with very dark pupils a specialized penlight was used, but only very briefly to avoid pupil constriction. Pupil diameter was measured at the same time as IOP and hyperemia. • Ocular Surface Hyperemia • Ocular surface hyperemia was visually assessed and scored according to a system typically used clinically.

Data set [2] has as its system Beagle dogs. Briefly: Ocular surface hyperemia in dogs. Format: in vivo. The following applies: dog, topical, Conc. 0.03%; score: trace 0.5, mild 1, moderate 2, severe 3. Here is the method: as §1
• Ocular surface hyperemia was evaluated at the same time points as intraocular pressure measurement. It should be noted that untreated dog eyes frequently have a pink/red tone. Thus, values of trace or even mild are not necessarily out of the normal range.

A further data set addresses T1, hTP (Homo sapiens, UniProt P21731).
T1 construct: expressed in transfected cells; host or cells: HEK-293 (EBNA)
T1 sequence (P21731 1-343): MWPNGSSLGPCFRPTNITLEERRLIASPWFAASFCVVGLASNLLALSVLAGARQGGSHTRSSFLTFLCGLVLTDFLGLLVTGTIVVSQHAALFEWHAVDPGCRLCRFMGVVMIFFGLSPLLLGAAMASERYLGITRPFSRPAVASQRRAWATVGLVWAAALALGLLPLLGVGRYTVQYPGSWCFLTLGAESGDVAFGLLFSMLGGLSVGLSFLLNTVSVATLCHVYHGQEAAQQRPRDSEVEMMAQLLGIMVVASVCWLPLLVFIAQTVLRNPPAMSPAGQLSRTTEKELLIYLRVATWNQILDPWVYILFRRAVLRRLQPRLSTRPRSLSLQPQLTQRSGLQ
In words: FLIPR calcium signal, hTP. Format: cell-based. The settings on record: HEK-293 (EBNA) cells, read-out: FUNCTIONAL EC50 HTP. Here is the method: (§2) HEK-293 (EBNA) cells, stably expressing one type or subtype of recombinant human prostaglandin receptors (prostaglandin receptors expressed: hDP/Gqs5; hEP1; hEP2/Gqs5; hEP3A/Gqi5; hEP4/Gqs5; hFP; hIP; hTP), were cultured in 100 mm culture dishes in high-glucose DMEM medium containing 10% fetal bovine serum, 2 mM 1-glutamine, 250 μg/ml geneticin (G418) and 200 μg/ml hygromycin B as selection markers, and 100 units/ml penicillin G, 100 μg/ml streptomycin and 0.25 μg/ml amphotericin B. • (b) Calcium Signal Studies on the FLIPR™
(§3) Cells were seeded at a density of 5×10^4 cells per well in Biocoat® Poly-D-lysine-coated black-wall, clear-bottom 96-well plates (Becton-Dickinson) and allowed to attach overnight in an incubator at 37° C. Cells were then washed two times with HBSS-HEPES buffer (Hanks Balanced Salt Solution without bicarbonate and phenol red, 20 mM HEPES, pH 7.4) using a Denley Cellwash plate washer (Labsystems). After 45 minutes of dye-loading in the dark, using the calcium-sensitive dye Fluo-4 AM at a final concentration of 2 μM, plates were washed four times with HBSS-HEPES buffer to remove excess dye leaving 100 μl in each well. Plates were re-equilibrated to 37° C. for a few minutes.
(§4) Cells were excited with an Argon laser at 488 nm, and emission was measured through a 510–570 nm bandwidth emission filter (FLIPR™, Molecular Devices, Sunnyvale, Calif.). Drug solution was added in a 50 μl volume to each well to give the desired final concentration. The peak increase in fluorescence intensity was recorded for each well. On each plate, four wells each served as negative (HBSS-HEPES buffer) and positive controls (standard agonists: BW245C (hDP); PGE2 (hEP1; hEP2/Gqs5; hEP3A/Gqi5; hEP4/Gqs5); PGF2α (hFP); carbacyclin (hIP); U46619 (hTP), depending on receptor). The peak fluorescence change in each drug-containing well was then expressed relative to the controls.
(§5) Compounds were tested in a high-throughput (HTS) or concentration-response (CoRe) format. In the HTS format, forty-four compounds per plate were examined in duplicates at a concentration of 10^−5 M. To generate concentration-response curves, four compounds per plate were tested in duplicates in a concentration range between 10^−5 and 10^−11 M. The duplicate values were averaged. In either, HTS or CoRe format each compound was tested on at least 3 separate plates using cells from different passages to give an n≧3.

Another data set deals with T2, hEP3A/Gqi5 (Homo sapiens, UniProt P43115).
T2 construct: expressed in transfected cells; host or cells: HEK-293 (EBNA)
T2 sequence (P43115 1-390): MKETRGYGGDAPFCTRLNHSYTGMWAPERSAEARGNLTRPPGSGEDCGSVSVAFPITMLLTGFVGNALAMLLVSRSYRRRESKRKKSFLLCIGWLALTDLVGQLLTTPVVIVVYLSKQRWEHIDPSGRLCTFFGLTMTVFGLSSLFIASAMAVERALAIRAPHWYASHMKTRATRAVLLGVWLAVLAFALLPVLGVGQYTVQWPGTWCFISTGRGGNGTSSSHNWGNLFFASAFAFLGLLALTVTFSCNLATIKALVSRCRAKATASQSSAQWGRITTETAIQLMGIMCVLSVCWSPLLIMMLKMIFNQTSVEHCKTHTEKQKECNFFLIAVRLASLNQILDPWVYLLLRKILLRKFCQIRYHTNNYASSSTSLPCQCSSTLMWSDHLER
Briefly: FLIPR calcium signal, hEP3A/Gqi5. Format: cell-based. The settings on record: HEK-293 (EBNA) cells, read-out: FUNCTIONAL EC50 HEP3A. How it is done: as §2, §3, §4, §5

For a further data set, the target named is T3, hEP4/Gqs5 (Homo sapiens, UniProt P35408).
T3 construct: expressed in transfected cells; host or cells: HEK-293 (EBNA)
Briefly: FLIPR calcium signal, hEP4/Gqs5. The following applies: HEK-293 (EBNA) cells, read-out: FUNCTIONAL EC50 HEP4. Format: cell-based. Here is the method:
as §2, §3, §4, §5

In another data set the target is T4, HEP4 (Homo sapiens, UniProt P35408).
T4 construct: expressed in transfected cells; host or cells: HEK-293
Briefly: Radioligand binding, EP4 receptor. The following applies: [3H]PGE2 5 nM, HEK-293 membranes. Here is the method:
(§6) HEK-293 cells stably expressing the human or feline FP receptor, or EP1, EP2, or EP4 receptors were washed with TME buffer, scraped from the bottom of the flasks, and homogenized for 30 sec using a Brinkman PT 10/35 polytron. TME buffer was added to achieve a final 40 ml volume in the centrifuge tubes (the composition of TME is 100 mM TRIS base, 20 mM MgCl2, […]; 10N HCl is added to achieve a pH of 7.4).
(§7) The cell homogenate was centrifuged at 19000 r.p.m. for 20 min at 4° C. using a Beckman Ti-60 rotor. The resultant pellet was resuspended in TME buffer to give a final 1 mg/ml protein concentration, as determined by Biorad assay. Radioligand binding competition assays vs. [^3H-]17-phenyl PGF2α (5 nM) were performed in a 100 μl volume for 60 min. Binding reactions were started by adding plasma membrane fraction. The reaction was terminated by the addition of 4 ml ice-cold TRIS-HCl buffer and rapid filtration through glass fiber GF/B filters using a Brandel cell harvester. The filters were washed 3 times with ice-cold buffer and oven dried for one hour. Non-specific binding was determined with 10 uM unlabeled 17-phenyl PGF2α.
(§8) [^3H-] PGE2 (5 nM; specific activity 180 Ci mmol) was used as the radioligand for EP receptors. Binding studies employing EP1, EP2, EP3, EP4 were performed in duplicate in at least three separate experiments. A 200 μl assay volume was used. Incubations were for 60 min at 25° C. and were terminated by the addition of 4 ml of ice-cold 50 mM TRIS-HCl, followed by rapid filtration through Whatman GF/B filters and three additional 4 ml washes in a cell harvester (Brandel). Non-specific binding determined with 10^−5M of unlabeled PGE2.

The target in the next data set is T5, HEP2 (Homo sapiens, UniProt P43116).
T5 construct: expressed in transfected cells; host or cells: HEK-293
In words: Radioligand binding, EP2 receptor. The settings on record: [3H]PGE2 5 nM, HEK-293 membranes. Here is the method:
as §6, §7, §8

In the next data set the target is T6, HEP3D (Homo sapiens, UniProt P43115).
T6 sequence (P43115 1-374 isoform P43115-4): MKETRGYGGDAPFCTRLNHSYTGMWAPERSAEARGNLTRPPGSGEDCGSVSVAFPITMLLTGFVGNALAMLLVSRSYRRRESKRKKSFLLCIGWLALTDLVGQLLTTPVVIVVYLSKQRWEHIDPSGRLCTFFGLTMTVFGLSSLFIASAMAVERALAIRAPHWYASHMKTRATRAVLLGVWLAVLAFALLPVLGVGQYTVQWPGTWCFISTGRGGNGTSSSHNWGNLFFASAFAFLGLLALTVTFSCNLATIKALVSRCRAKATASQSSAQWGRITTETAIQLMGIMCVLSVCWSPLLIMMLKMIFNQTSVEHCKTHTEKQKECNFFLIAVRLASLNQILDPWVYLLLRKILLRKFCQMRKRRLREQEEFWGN
Briefly: Radioligand binding, EP3 receptor. The following applies: [3H]PGE2 5 nM. How it is done:
as §6, §7, §8

Each structure is given as a SMILES string.

T3 sequence (P35408 whole entry): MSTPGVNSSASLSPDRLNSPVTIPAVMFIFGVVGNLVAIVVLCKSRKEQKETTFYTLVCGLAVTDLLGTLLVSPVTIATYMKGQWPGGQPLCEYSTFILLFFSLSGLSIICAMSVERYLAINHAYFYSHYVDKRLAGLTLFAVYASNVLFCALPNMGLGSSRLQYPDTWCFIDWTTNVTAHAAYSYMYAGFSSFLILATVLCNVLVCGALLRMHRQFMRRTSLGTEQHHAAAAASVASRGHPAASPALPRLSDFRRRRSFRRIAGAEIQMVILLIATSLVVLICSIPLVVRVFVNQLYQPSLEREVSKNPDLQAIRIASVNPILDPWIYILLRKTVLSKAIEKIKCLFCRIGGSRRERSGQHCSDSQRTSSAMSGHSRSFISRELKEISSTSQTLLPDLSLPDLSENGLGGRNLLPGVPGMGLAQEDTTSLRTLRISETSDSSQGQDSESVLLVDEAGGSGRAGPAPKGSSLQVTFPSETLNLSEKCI
T4 sequence (P35408 whole entry): as above
T5 sequence (P43116 whole entry): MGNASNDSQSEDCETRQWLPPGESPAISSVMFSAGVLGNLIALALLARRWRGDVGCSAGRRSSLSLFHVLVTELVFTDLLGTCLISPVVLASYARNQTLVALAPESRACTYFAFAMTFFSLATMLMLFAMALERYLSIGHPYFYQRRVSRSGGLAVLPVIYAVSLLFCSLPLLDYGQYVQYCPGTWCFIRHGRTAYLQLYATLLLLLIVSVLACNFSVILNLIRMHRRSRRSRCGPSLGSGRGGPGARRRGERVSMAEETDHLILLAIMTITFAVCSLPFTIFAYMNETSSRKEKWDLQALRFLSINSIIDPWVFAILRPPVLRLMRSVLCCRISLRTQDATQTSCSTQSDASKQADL

For `CC(C)OC(=O)CSCCCS[C@H]1C(=O)C[C@@H](CO)[C@@H]1/C=C/C(O)Cc1ccccc1` (single isomer, unassigned) [Compound 150, {3-[3-Hydroxymethyl-2-(3-hydroxy-4-phenyl-but-1-enyl)-5-oxo-cyclopentylsulfanyl]-propylsulfanyl}-acetic acid isopropyl ester], in the data set on Beagle dogs [1], the “Max. ΔIOP” value was −5.5 mm Hg. The Max hyperemia in the data set on Beagle dogs [2] stood at 0.9.
As for `CC(O)(/C=C/[C@H]1CCC(=O)[C@@H]1SCCCSCC(=O)O)CCc1ccc2ccccc2c1` (single isomer, unassigned) [drawing 24], the values for the EC50 at hTP, on hEP3A/Gqi5 and at hEP4/Gqs5 were more than 10000 nM, more than 10000 nM and 1.8 nM, respectively. The molecule further yielded an IC50 on HEP4 of 96 nM.
For the molecule `CC(O)(/C=C/[C@H]1CCC(=O)[C@@H]1SCCCSCC(=O)O)CCc1ccc2ccccc2c1` (single isomer, unassigned) [drawing 33], the figures for the EC50 at hTP and on hEP4/Gqs5 were more than 10000 nM and 20 nM, respectively. The IC50 at HEP4 was 200 nM.
Take `O=C(O)CSCCCS[C@H]1C(=O)CC[C@@H]1/C=C/C(O)CCc1ccc2ccccc2c1` (single isomer, unassigned) [drawing 36]: the IC50 came out at 8100 nM on HEP2 and 140 nM on HEP4. The EC50 on hEP4/Gqs5 was determined as 1 nM.
`COC(=O)CSCCCS[C@H]1C(=O)CC[C@@H]1/C=C/C(O)Cc1ccccc1` (single isomer, unassigned) [drawing 46]: the results for the EC50 on hTP, at hEP3A/Gqi5 and on hEP4/Gqs5 were more than 10000 nM, more than 10000 nM and 0.09 nM, respectively. The IC50 on HEP3D is more than 10000 nM; at HEP4, 19 nM.
Turning to `O=C(O)CSCCCS[C@H]1C(=O)CC[C@@H]1/C=C/C(O)Cc1ccccc1` (single isomer, unassigned) [drawing 48], the EC50 at hTP and at hEP3A/Gqi5 was more than 10000 nM throughout. The IC50 is more than 10000 nM on HEP3D and 11 nM on HEP4.
Take `O=C(O)CSCCCS[C@H]1C(=O)CC[C@@H]1/C=C/C(O)CCc1cc2ccccc2s1` (stereo partly drawn) [drawing 25, {3-[(1R,2R)-2-((E)-5-Benzo[b]thiophen-2-yl-3-hydroxy-pent-1-enyl)-5-oxo-cyclopentylsulfanyl]-propylsulfanyl}-acetic acid]: the EC50 at hTP is more than 10000 nM; on hEP3A/Gqi5 it was 1950 nM; at hEP4/Gqs5, 3.7 nM. Further, the IC50 on HEP2 was more than 10000 nM; at HEP3D, more than 10000 nM; on HEP4, 44 nM.
For the molecule `O=C(O)CSCCCS[C@H]1C(=O)CC[C@@H]1/C=C/C(O)CCc1cc2ccccc2s1` (stereo partly drawn) [drawing 26, {3-[(1R,2R)-2-((E)-5-Benzo[b]thiophen-2-yl-3-hydroxy-pent-1-enyl)-5-oxo-cyclopentylsulfanyl]-propylsulfanyl}-acetic acid], the IC50 on HEP2 is more than 10000 nM; at HEP3D, more than 10000 nM; on HEP4, 45 nM. On hEP4/Gqs5, the EC50 was found to be 2.4 nM.
Turning to `COC(=O)CSCCCS[C@H]1C(=O)CC[C@@H]1/C=C/C(O)CCc1cc2ccccc2s1` (stereo partly drawn) [drawing 28, {3-[(1R,2R)-2-((E)-5-Benzo[b]thiophen-2-yl-3-hydroxy-pent-1-enyl)-5-oxo-cyclopentylsulfanyl]-propylsulfanyl}-acetic acid methyl ester], the IC50 was more than 10000 nM on HEP2 and 300 nM on HEP4. For the same molecule, the EC50 at hEP4/Gqs5 turned out to be 11 nM.
As for `O=C(O)CSCCCS[C@H]1C(=O)CC[C@@H]1/C=C/C(O)Cc1ccc2ccccc2c1` (stereo partly drawn) [{3-[(1R,2R)-2-((E)-3-Hydroxy-4-naphthalen-2-yl-but-1-enyl)-5-oxo-cyclopentylsulfanyl]-propylsulfanyl}-acetic acid], the EC50 is more than 10000 nM at hTP, more than 10000 nM at hEP3A/Gqi5 and 0.4 nM at hEP4/Gqs5. Moreover, the figures for the IC50 at HEP3D and at HEP4 were more than 10000 nM and 26 nM, respectively.

By EC50 is commonly meant the midpoint of the concentration-response curve. As a reminder, the IC50 is the concentration that gives 50% inhibition. Lower therefore signals inhibition by little substance.

The values above are taken from patent US7183324B2, “2,3,4-substituted cyclopentanones as therapeutic agents” (Allergan, Inc., priority 2004, dated 2007).
